Test: Kinetic inertness: dissociation of Gd(III)-complexes in 0.01–1.0 M HCl followed by HPLC
Format: physicochemical
Conditions: for k d at pH = 7.4: dissociation rate calculated at pH 7.4, 25 °C; for k1: proton-assisted dissociation, 25 °C, [H+]≤0.15 M: [Na+]+[H+]=0.15 M; for acid-catalyzed dissociation, times slower than Gd(III)-complex with BT-DO3A / acid-catalyzed dissociation, times slower than Gd(III)-complex with HP-DO3A: ratio of k1
From the text: The kinetic inertness of the Gd(III)‐complexes with the different isomers formed by rac‐L1 and rac‐L2 was characterized by the rates of the dissociation reactions taking place in 0.01–1.0 M HCl solution. The dissociation reactions were followed by measuring the integral values of the Gd(III)‐complexes with the different isomers of rac‐L1 and rac‐L2 ligands with HPLC. The conditions of the HPLC experiments for the kinetic studies of the Gd(III)‐complexes with rac‐L1 and rac‐L2 ligands are summarized in Tables S1 and S2 (Supporting Information), respectively. The samples were kept at 25 °C in a well‐closed vessel. For the HPLC analysis, 100 µL samples were withdrawn from the solutions. The measurements were performed with 0.2 mM solution of Gd(III)‐complexes. The pseudo‐first‐order rate constants (k d) were calculated by fitting the HPLC integral – t data pairs to Equation (1). (1) At=Ar−Ave^−kdt+Av where A r, A v, and A t are the integral values of the reactants, the product, and reaction time t. The temperature was maintained at 25 °C and the ionic strength of the solutions was kept constant at [H^+]≤0.15 M, [HCl]+[NaCl] = 0.15 M. The calculation of the kinetic parameters was performed by the fitting of the absorbance – time and relaxation rate – time data pairs with the Micromath Scientist computer program (version 2.0, Salt Lake City, UT, USA).
The dissociation reactions of Gd(III)-complexes with the different isomers formed by rac-L1 and rac-L2 have been studied by HPLC method (Tables S1 and S2) at 25 °C in 0.01 – 1.0 M HCl solution to guarantee the pseudo-first-order kinetic condition. Area values as a function of time for the dissociation reactions of Gd(III)-complexes formed with the different stereoisomers of rac-L1 obtained at 25 °C in 1.0 M HCl solution are shown in Figure S48.
In the presence of HCl excess, the decomplexation of Gd(III)-complexes can be treated as a pseudo-first-order process and the reaction rate can be expressed by Equation (S9), where kd is a pseudo-first-order rate constant, [GdL]t and [GdL]tot are the concentrations of the GdL species at time t and the total concentration of the complex, respectively.
The rates of the dissociation reactions have been studied at different concentrations of HCl ([HCl]=0.01 – 1.0 M, 25 °C). The kd values obtained for the Gd(III)-complexes with the different isomers of rac-L1 and rac-L2 ligands as a function of [H^+] are shown in Figures S49 and S50.
The obtained kd pseudo-first order rate constants are directly proportional to the concentration of H^+. The increase in the kd values with increasing concentration of H^+ can be interpreted in terms of the proton assisted dissociation of Gd(III)-complexes. […] The proton assisted dissociation of Gd(III)-complexes might be explained by the equilibrium formation of a protonated *Gd(HL) intermediate (Equation (S11)), which dissociates spontaneously (Equation (12)).
where k0, and k1 = kGdHL×K^HGdHL are the rate constants characterizing the spontaneous and proton-assisted dissociation of Gd(III)-complexes. The protonation constant (K^HGdHL) of Gd(DOTA)-like complexes are very small (Gd(DOTA): K^HGdHL =14).^[22] By considering very low protonation constant of Gd(III)-complexes with A, C and D isomers of rac-L1 and A’, C’ and D’ isomers of rac-L2 ligands (K^HGdHL<<10), the denominator of Equation (S14) (1>> K^HGdHL [H^+]) can be neglected, so Equation (S14) can be simplified in the form of Equation (S15). The k0 and k1 values of the Gd(III) complexes with A, C and D isomers of rac-L1, and A’, C’ and D’ isomers of rac-L2 ligands have been calculated by fitting of the kinetic data (Figures S49 and S50) to Equation (S15).
The k1 rate and logK^HGdHL protonation constants characterizing the acid-catalyzed decomplexation of Gd(III)-complexes formed with the different stereoisomers of rac-L1 and rac-L2 are presented and compared with those of [Gd(PCTA)], [Gd(DOTA)]^-, [Gd(HP-DO3A)] and [Gd(BT-DO3A)] in Table S19.

Structure (SMILES) | k d at pH = 7.4 (listed as RRR/SSS (C)) | k d at pH = 7.4 (listed as [Gd(rac-L1)] C (RRR/SSS)) | k1 | k d at pH = 7.4 (listed as RRR/SSS (D′)) | k d at pH = 7.4 (listed as [Gd(rac-L2)] D’ (RRR/SSS)) | acid-catalyzed dissociation, times slower than Gd(III)-complex with BT-DO3A [times] | acid-catalyzed dissociation, times slower than Gd(III)-complex with HP-DO3A [times]
O=C([O-])CCC(C(=O)[O-])N1CCN(C(CCC(=O)[O-])C(=O)[O-])Cc2cccc(n2)CN(C(CCC(=O)[O-])C(=O)[O-])CC1.[Gd+3] (racemic) [[Gd(ent‐L1)]^3−] | RRR/SSS (C): 5.61 × 10^−14 s^−1 | 5.61×10^-14 s^−1 | (1.4±0.1) ×10^-6 M^-1s^-1 |  |  |  | 
O=C(CCC(C(=O)[O-])N1CCN(C(CCC(=O)NCC(O)CO)C(=O)[O-])Cc2cccc(n2)CN(C(CCC(=O)NCC(O)CO)C(=O)[O-])CC1)NCC(O)CO.[Gd+3] (stereo not drawn) [[Gd(ent‐L2)]] |  |  | (4.4±0.2) ×10^-6 M^-1s^-1 | RRR/SSS (D′): 1.74 × 10^−13 s^−1 | 1.74×10^-13 s^−1 |  | 
O=C(O)CCC(C(=O)O)N1CCN(C(CCC(=O)O)C(=O)O)Cc2cccc(n2)CN(C(CCC(=O)O)C(=O)O)CC1 (stereo not drawn) [ent‐L1] |  |  |  |  |  | 24 | 207
O=C(CCC(C(=O)O)N1CCN(C(CCC(=O)NCC(O)CO)C(=O)O)Cc2cccc(n2)CN(C(CCC(=O)NCC(O)CO)C(=O)O)CC1)NCC(O)CO (stereo not drawn) [ent‐L2] |  |  |  |  |  | 7 | 66

Reference: paper PMC11984905, “Chiral Switch of Gadopiclenol: New Standards in MRI Probes” (Advanced Science, 2025)
